# Reference: patent publication US20180325947A1, “USE OF MAPK INHIBITORS TO REDUCE LOSS OF HEMATOPOIETIC STEM CELLS DURING EX VIVO CULTURE AND/OR GENETIC MANIPULATION” (Children's Hospital Medical Center, priority 2015, published 2018)
# Assays:
# [1] = test system: human CD45+ cell engraftment in NSG mice; test: primary transplant (1T) of cultured hCD34+ cells into NSG mice, hCD45+ engraftment in bone marrow; assay type: in vivo; settings: for hCD45+ cell engraftment in bone marrow of 1T mice: 24 weeks after primary transplant of cultured hCD34+ cells with/without inhibitor
# Method: FIG. 2. A preclinical model for studying adult human HSC ex vivo manipulation and gene transfer and its effect on LTRP. (Panel A) Freshly isolated or thawed mobilized peripheral blood (MPB) derived CD34+ cells were utilized for the study. Two different protocols were utilized for the study where lentivirus (LV) or γ-Retrovirus (RV) mediated gene transfer was performed at indicated time points. 0 h, 18-24 h, 36-42 h, and 72-96 h indicates the total amount of time where cells were exposed in the ex vivo culture after CD34 isolation before injection into NSG mice. (Panel B) After indicated time in culture and transduction, 1 million CD34+ starting equivalent cells were transplanted per NSG mouse after TBI intravenously (primary transplant=1T). Primary human engraftment and multi-lineage reconstitution was analyzed in mice at indicated time periods after bone marrow harvest at 6 and 12 weeks (wks) from left and right femurs, and after sacrifice at 24 wks, from all bones. A portion of cells were analyzed for FACS and the rest were depleted of mouse CD45+ cells and transplanted one to one, into secondary mice (secondary transplant=2T).
# Panel A: hCD45^+ cell engraftment in bone marrow of 1T mice at 24 weeks following transplant of cultured hCD34^+ cells with/without p38 inhibitor Birb796. Panel B: Number of 2T mice engrafted (>0.01% hCD45^+ cells in BM) are shown above the middle bar and those non-engrafted below.
# A xenograft model was developed to study hHSC engraftment. In the xenograft model of adult human HSC, CD34^+ cells were derived and isolated from fresh MPB. The fresh CD34^+ cells were either directly transplanted into immunocompromised NSG mice or cultured with human cytokines and then transduced either with lentivirus or retrovirus. […] The multipotential human hematopoietic progeny (hCD45^+) following huCD34^+ transplant in NSG mice were then measured to confirm that the model human HSC engraftment from adult (mobilized peripheral blood) CD34^+ HSC/P that mimics the results observed in gene therapy clinical trials. […]
# [2] = test system: human CD34+ 38- 90+ HSC enriched population; test: cell cycle status of HSCs (Ki67 / Hoechst), flow cytometry; assay type: cell-based; settings: for G0 quiescent phase of untransduced and transduced HSCs: early time period of ex vivo culture
# Method: Human MPB derived CD34^+ cells were cultured and transduced with lentivirus (LV) or retrovirus (RV) for the indicated time points. Representative Immunofluorescence images of sorted human CD34^+ 38^− 90^+ population treated with or without p38i for 72 hours stained with anti-γH2AX and 53BP1 (Panel A) and quantification of γ-H2AX (Panel B) and 53BP1 (Panel C) MFI/cell. Panel D: Representative histogram plot from flow cytometric analysis of CD34^+ 38^− 90^+ HSC enriched cells stained for γ-H2AX with or without p38 inhibitor (p38i) and quantification of fold change in mean fluorescence intensity (MFI) of γ-H2AX in HSCs (Panel E) and percent GH2AX^+ cells (Panel F) at indicated time period. Percentage shown in histograms are cells positive for γH2AX and the numbers below is mean fluorescent intensity (MFI) (n=5 independent experiments). FACS plot representing HSCs in G0 (Quiescent), G1, and S-G2-M phase of cell cycle with or without p38i (Panel G) and quantification (Panel H) of HSC enriched population at different cell cycle phase at indicated time of ex vivo culture. Percentage of (±SEM) Ki67^− (G0) and Ki67^+ (G1-S-G2-M) HSCs is depicted on the y-axis. (n=4 independent experiments for 24 h LV and n=5 independent experiments for 42 h LV and 72 h RV)). Statistics: paired Student's t test, *p<0.05, **p<0.01, ***p<0.001.
# Human MPB derived CD34^+ cells were cultured and transduced as described in FIG. 17. Panel A: Quantification of γ-H2AX^+ CD34^+ 38^− 90^+ cells at 24, 42, & 72 hours. n=5-8 independent experiments/condition). Panel B: Quantification of immunofluorescence analysis for γ-H2AX (left) and 53BP1 (right) MFI per sorted human CD34^+ 38^− 90^+ cell with or without p38i for 42 hours. Panel C: Quantitative plot representing CD34^+ 38^− 90^+ cells in G0-G1, and S-G2-M phase of cell cycle with or without p38i at 42 hours of ex vivo culture and lentivirus (LV) transduction. (n=6 independent experiments/condition). Statistics: paired Student's t test, *p<0.05, **p<0.01, ***p<0.001. Statistics: Student's t test, *p<0.05, **p<0.01, ***p<[…].
# Ki67, a nuclear antigen associated with cell proliferation, was used to determine cell cycle status via flow cytometry; negative stains were considered to represent quiescent HSCs.
# [3] = before the first HSC division (24 h)
smiles,measurement,setting,value
"Cc1ccc(-n2nc(C(C)(C)C)cc2NC(=O)Nc2ccc(OCCN3CCOCC3)c3ccccc23)cc1 [BIRB-796, 1-[5-tert-butyl-2-(4-methylphenyl)pyrazol-3-yl]-3-[4-(2-morpholin-4-ylethoxy)naphthalen-1-yl]urea]","human CD45+ cell engraftment in NSG BM, 1T","[1]; 24 weeks after 1T, 72-96 h LV and RV groups",slightly improved
same,hCD45+ cell engraftment in bone marrow of 1T mice,[1],not affecting
same,hCD45+ cell engraftment in bone marrow of 1T mice,[1]; listed as Birb796,significantly increases
same,effect on HSC cell cycle,"[2]; after 24 h, as HSC progressed through cell cycle",lost
same,proportion of HSC in the G0 quiescent phase,[2]; [3],significantly increased
same,proportion of HSC in the S-G2-M phase,[2]; [3],decreased
same,G0 quiescent phase of untransduced and transduced HSCs,[2],maintain
same,G0 quiescent phase of untransduced and transduced HSCs,[2]; listed as p38i,retains
